Measured values taken from ChEMBL document CHEMBL5096210, “Discovery of Betulinic Acid Derivatives as Potent Intestinal Farnesoid X Receptor Antagonists to Ameliorate Nonalcoholic Steatohepatitis” (J Med Chem, 2022).
Activity calls are given as the source filed them. No cut-off for these calls is given here.

Tests used:
Bile acid receptor = molecular target: T1, Bile acid receptor (Homo sapiens, UniProt Q96RI1); test: Antagonist activity at FXR (unknown origin) expressed in HEK293T cells cotransfected with pCMV-Script-hFXR/pGL4.11-hSHP-Luciferase incubated for 24 hrs in presence of GW4064 by Steady-glo luciferase assay; format: cell-based
T1 sequence (Q96RI1 whole entry): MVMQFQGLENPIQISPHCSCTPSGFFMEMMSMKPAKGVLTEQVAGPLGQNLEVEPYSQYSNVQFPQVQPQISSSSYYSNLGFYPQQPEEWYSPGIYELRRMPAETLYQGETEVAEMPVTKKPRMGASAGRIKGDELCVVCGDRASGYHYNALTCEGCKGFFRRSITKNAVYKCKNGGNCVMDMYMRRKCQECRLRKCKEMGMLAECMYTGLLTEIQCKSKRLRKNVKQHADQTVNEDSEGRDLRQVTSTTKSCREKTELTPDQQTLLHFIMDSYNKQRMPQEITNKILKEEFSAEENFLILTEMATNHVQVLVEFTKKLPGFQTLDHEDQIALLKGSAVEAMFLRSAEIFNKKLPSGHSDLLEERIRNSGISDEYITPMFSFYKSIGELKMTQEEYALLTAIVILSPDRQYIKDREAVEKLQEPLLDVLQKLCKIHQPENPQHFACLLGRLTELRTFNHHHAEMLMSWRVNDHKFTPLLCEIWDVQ

[1] = molecular target: T2, Bile acid receptor (Mus musculus) (UniProt Q60641); test: In vivo antagonist activity against FXR in mouse assessed as stimulation of organoids growth in presence of FXR agonist; format: functional
T2 sequence (whole entry): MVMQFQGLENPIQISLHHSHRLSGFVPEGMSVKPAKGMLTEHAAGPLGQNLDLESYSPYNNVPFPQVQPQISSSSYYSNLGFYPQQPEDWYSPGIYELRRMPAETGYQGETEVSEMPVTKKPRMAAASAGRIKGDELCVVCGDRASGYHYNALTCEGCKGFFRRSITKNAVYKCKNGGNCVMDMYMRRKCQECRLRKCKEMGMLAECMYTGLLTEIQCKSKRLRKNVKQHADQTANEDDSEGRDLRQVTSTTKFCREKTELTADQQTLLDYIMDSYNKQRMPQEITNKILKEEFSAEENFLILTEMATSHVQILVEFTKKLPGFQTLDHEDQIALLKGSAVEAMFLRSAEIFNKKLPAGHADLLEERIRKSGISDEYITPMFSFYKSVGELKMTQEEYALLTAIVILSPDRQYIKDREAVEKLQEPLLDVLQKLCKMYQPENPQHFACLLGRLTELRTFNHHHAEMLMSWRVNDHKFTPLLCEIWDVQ

[2] = molecular target: T2, Bile acid receptor (Mus musculus); test: In vivo antagonist activity against FXR in mouse assessed as reduction in Fxr level in presence of GW4064; format: functional
[3] = molecular target: T2, Bile acid receptor (Mus musculus); test: In vivo antagonist activity against FXR in microbeta depleted mouse assessed as reduction in taurocholic acid induced Shp mRNA expression in ileum at 10 mg/kg, po incubated for 2 to 48 hrs; format: functional, organism-based; details: time 2-48 hrs
[4] = molecular target: T2, Bile acid receptor (Mus musculus); test: In vivo antagonist activity against FXR in mouse assessed as reduction in Tgr5 expression in small intestine organoids; format: functional
[5] = Drug metabolism in C57BL6 mouse liver assessed as ((1S,3aS,5aR,5bR,7aR,9R,11aR,11bR,13aR,13bR)-9-hydroxy-1-isopropyl-5a,5b,8,8,11a-pentamethylicosahydro-1H-cyclopenta[a]chrysene-3a-carbonyl)glycine formation at 10 mg/kg, po administered as single dose measured after 2 hrs; format: ADME, organism-based; details: in vivo
Mus musculus [6] = test: Anti-NASH activity in GAN-induced mouse assessed as reduction in fasting glucose level at 10 mg/kg measured upto 120 mins; format: functional, organism-based
Mus musculus [7] = test: Anti-NASH activity in GAN-induced mouse assessed as increase in glucose tolerance at 10 mg/kg; format: functional, organism-based
Mus musculus [8] = test: Anti-NASH activity in GAN-induced […] mouse assessed as upregulation of Ucp1 expression in inguinal white adipose tissue at 10 mg/kg; format: functional, organism-based
Mus musculus [9] = species: Mus musculus; test: Anti-NASH activity in GAN diet-induced […] mouse assessed as reduction in AST level; format: functional, organism-based
Liver [10] = test: Anti-NASH activity in GAN diet-induced […] mouse liver assessed as reduction in hepatocyte ballooning by Oil Red O staining based assay; format: functional, cell-based
Liver [11] = test: Anti-NASH activity in GAN diet-induced […] mouse liver assessed as reduction in hepatocyte fat by Oil Red O staining based assay; format: functional, cell-based
Mus musculus [12] = species: Mus musculus; test: Anti-NASH activity in GAN diet-induced […] mouse assessed as reduction in Fabp2 mRNA expression level; format: functional, organism-based
Mus musculus [13] = species: Mus musculus; test: Anti-NASH activity in GAN diet-induced […] mouse assessed as reduction in Col1a1 level; format: functional, organism-based
Mus musculus [14] = species: Mus musculus; test: Anti-NASH activity in GAN diet-induced […] mouse assessed as suppression of O-sta expression; format: functional, organism-based
Mus musculus [15] = species: Mus musculus; test: Anti-NASH activity in HFMCD diet-induced […] mouse assessed as decrease in collagen deposition by Sirius red staining based analysis; format: functional, organism-based
Mus musculus [16] = species: Mus musculus; test: Anti-NASH activity in GAN diet-induced […] mouse assessed as increase in bile acid level in liver; format: functional, organism-based

In the case of `CCCC(=O)O[C@@H]1CC[C@]2(C)[C@H]3CC[C@@H]4[C@H]5[C@H](C(C)C)CC[C@]5(C(=O)NCC(=O)O)CC[C@@]4(C)[C@]3(C)CC[C@H]2C1(C)C`, the IC50 (Bile acid receptor) is reported as 2100 nM, the Activity [1] is reported as “Active” and the Activity [2] is reported as “Active”. The Activity [3] was “Active”, the Activity [4] was “Active” and the Drug metabolism [5] was “Metabolite_Detected”. The Activity (Mus musculus [6]) was “Active”, the Activity (Mus musculus [7]) was “Active” and the Activity (Mus musculus [8]) was “Active”. The Activity (Mus musculus [9]) was “Active”, the Activity (Liver [10]) was “Active” and the Activity (Liver [11]) was “Active”. The Activity (Mus musculus [12]) was “Active”, the Activity (Mus musculus [13]) was “Active” and the Activity (Mus musculus [14]) was “Active”. The Activity (Mus musculus [15]) was “Active” and the Activity (Mus musculus [16]) was “Active”.
